Biological target: T1, CXCR1 (Homo sapiens, UniProt P25024)
T1 construct: host or cells: HEK293T, transient
T1 sequence (P25024 1-350): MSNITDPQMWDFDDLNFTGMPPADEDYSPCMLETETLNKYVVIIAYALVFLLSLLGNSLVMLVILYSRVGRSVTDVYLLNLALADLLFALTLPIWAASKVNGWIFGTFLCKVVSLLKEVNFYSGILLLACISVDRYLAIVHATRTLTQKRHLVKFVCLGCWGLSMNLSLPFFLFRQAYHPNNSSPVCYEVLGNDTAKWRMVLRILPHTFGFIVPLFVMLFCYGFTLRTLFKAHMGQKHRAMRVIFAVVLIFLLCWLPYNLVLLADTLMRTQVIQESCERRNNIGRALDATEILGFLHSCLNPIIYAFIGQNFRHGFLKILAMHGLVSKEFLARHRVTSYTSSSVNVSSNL
Test: Membrane-based NanoBRET saturation binding assay, CXCR1_Nluc membranes
Procedure: Emission spectra of Nluc -labeled CCR1 (CCR1_Nluc) protein: The emission spectra of CCR1_Nluc has already been reported by Toy et al.1 For a confirmation of the reported data with new CCR1_Nluc membrane batches, furimazine (Promega, Mannheim, Germany 1:2000) was added to the membrane preparations (2 µg protein/well). […]
NanoBRET binding assays: Membrane-based NanoBRET saturation assay: For the establishment of our NanoBRET binding assay, we referred to recently published protocols. […]
Then, 20 µL of the membrane preparations diluted in assay buffer (3 µg total protein/well) were added and the plates were incubated for 90 min at 37 °C. Subsequently, 5 µL of a furimazine solution (Promega, Mannheim, Germany, final assay dilution: 1:5,000) were added to each well (final assay volume: 35 µL) before measuring luminescence with a CLARIOstar microplate reader using 620/10 nm and 475/30 nm emission filters after 5 min of incubation in the dark. Bioluminescence resonance energy transfer (BRET) was determined as the ratio of acceptor fluorescence and donor luminescence. […] Specific binding signals were calculated as a difference of total and non-specific binding. If required, netBRET values were calculated as the difference between total BRET values and the values obtained in the absence of a fluorescent ligand. […]

Kd: 12.3 ± 0.3 µM
SMILES: CN(C)c1ccc2c(-c3cc(C(=O)NCCOCCOCc4cn(CCCC(=O)C5=C(O)C(=O)N(c6ccc(Br)cc6F)C5C5CCCCC5)nn4)ccc3C(=O)[O-])c3ccc(=[N+](C)C)cc-3oc2c1 (stereo not shown) [compound 12]
